Patent US20220160812A1, “A PHARMACEUTICALLY ACTIVE SUBSTANCE” (Cytopharma GmbH, priority 2019, published 2022)

Test system: BxPC-3 human pancreatic cancer cells
Experiment: cell vitality FACS analysis (region R-1, FSC/SSC), BxPC-3 cells
Format: cell-based
Settings: BxPC-3, Protocol A, about 24 hours, FIG. 8
Description: To transfer adherent cells (A375 and BxPC-3 cells) after culture, cells are washed twice with PBS. To detach the cells, the enzyme biotase is used according to the manufacturer's instructions. For this purpose, after washing with PBS, the cells are mixed with biotase (5 ml of biotase solution per 75 cm^2 surface of the cell culture bottles) and incubated for 5 min at 37 degrees Celsius, and the biotase is separated by centrifugation. Cells cultivated in suspension (MEC-1 and lymphocytes) were transferred by dilution. The cells are suspended in culture medium and counted, each time 1.5×10^5 cells/cm^2 are seeded in 48-well plates and cultured for between 1.5 and 24 hours at 37 degrees Celsius, 5% CO2. Peptides are pre-diluted from stock solution with culture medium and 200 μl of peptide solution added so that final concentrations of 30 to 500 μM peptide are present in at most 1% (v/v) DMSO. As control solutions, culture medium without peptide (DMSO-containing) in culture medium or etoposide solution is added. After incubating the cells for several hours, the cell supernatant is transferred to a FACS tube for each batch and, after washing the cells with PBS, the wash solution is added. Then the cells are incubated with 200 μl of biotase solution for 10 min, 37° C., the cells with the biotase are also transferred to the FACS tube and the cells are collected by centrifugation for 5 min. The cell pellet is suspended in 500 μl of serum-free culture medium, then 1.5 ml of cold 80% ethanol (ethanol/PBS-80/20, v/v, stored at −20° C.) is added, the FACS tubes sealed and stored at −20 degrees Celsius for 15 to 18 h. Thereafter, the cells are centrifuged for 5 minutes at 120 g, suspended after removal of the supernatant in 2 ml PBS and incubated at 37 degrees Celsius for 30 minutes. After re-centrifugation, the cells are suspended in 0.5 ml DAPI solution and incubated for 15 min at 20 degrees Celsius in the dark. Thereafter, the cells are stored dark for a maximum of four hours in an ice bath, followed by the FACS analysis. […]
For suspension cells (MEC-1 and lymphocytes/PBMC) and for adherent cells analyzed according to Protocol A, FACS analysis to determine subG1 cell cycle and vital cell fractions was done on a Becton Dickinson LSR Fortessa flow cytometer. The analysis by FACS including subG1 and vital cell analysis according to protocol B was performed with a Cytomics FC 500 MPL flow cytometer from Beckman Coulter.
Changes of the cell form during cell death by apoptosis are documented in the literature (Lizard et al. 1995; Taga et al. 2000; Vermes et al., 2000). The protocols for cell cultivation, treatment and preparation of the cells before flow cytometry is detailed in separate examples. Cell suspensions of cell lines A375, BxPC-3, MEC-1 or of primary lymphocytes (see separate example of lymphocyte preparation) are analyzed by flow cytometry. The data are further analyzed by using the program “Flowing Software 2”. The data of light scattering are drawn in a two-dimensional FSC/SSC plot. Since the position in the FSC/SSC plot of apoptotic cells changes relative to non-apoptotic cells (Vermes et al., 2000), a region (R-1) is drawn representing mainly non-apoptotic cells and excluding cells with both low FSC and low SSC values and excluding cells with high values of FSC and/or SSC (FIG. 1). The regions are individually selected for each cell type (A375, BxPC-3, MEC-1 and primary lymphocytes). The percentage of untreated non-apoptotic cells in the region R-1 relative to total cells is set to 100%, representing 100% vital cells. The fraction (%) of cells in R-1 relative to the total number of cells in case of cell treatment by certain peptides or by cytotoxic drugs results in cell vitality, below 100%, thereby indicating a loss of cell vitality by the treatment. […]

[1] = all concentrations (50, 100, 200 μM)

Substance	decrease of cell vitality, efficiency in words (100 μM)	decrease of cell vitality, efficiency in words (200 μM)	decrease of cell vitality, comparison in words [1]	decrease of cell vitality, comparison in words (50 μM)	efficiency (decrease of cell vitality) in view of Peptide SEQ C1 (50 μM)	efficiency (decrease of cell vitality) in view of Peptide SEQ C1 (100 and 200 μM)
k-s-q-t-v-k-k-w-m-v-v-y-f-r-k [SEQID No 29]	very high efficiency	astonishing high efficiency	significantly greater decrease than the control peptide (C1)			
k-s-q-t-v-q-k-w-m-v-v-y-f-r-k [SEQID No 36]	very high efficiency	astonishing high efficiency	significantly greater decrease than the control peptide (C1)	clear improvement over peptides SEQID NO 27, SEQID NO 37 and SEQID NO 29	at least fourfold	at least sevenfold
s-q-t-v-q-k-w-m-v-v-y-f-r-k [SEQID No 37]		astonishing high efficiency	significantly greater decrease than the control peptide (C1)			
